In US20260206761A1, “HETEROARYL-TRIAZOLE COMPOUNDS AS PESTICIDES” (Bayer Aktiengesellschaft, priority 2019, published 2026):

Experiments:
Assay type in all cases: in vivo
[1] = tested on: fall armyworm larvae (Spodoptera frugiperda); assay: Spodoptera frugiperda spray test; conditions: 168 h, read-out: activity (mortality)
Procedure, shortened: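 Larvae of fall armyworm placed on dried maize leaf sections previously sprayed with emulsified compound (acetone/DMF solvent, water with 1000 ppm emulsifier). Percent of caterpillars killed recorded on day 7, 0–100% scale.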

[2] = tested on: adult unfed cat fleas (Ctenocephalides felis); assay: Ctenocephalides felis oral test; conditions: 48 h, read-out: activity (mortality)
Procedure: Ctenocephalides felis—Oral Test
Solvent: dimethyl sulfoxide
To produce a suitable preparation of active compound, 10 mg of active compound are dissolved in 0.5 mL solvent, and the concentrate is diluted with cattle blood to the desired concentration.
Approximately 20 adult unfed cat fleas (Ctenocephalides felis) are placed in flea chambers. The blood chamber, sealed with parafilm on the bottom, are filled with cattle blood supplied with compound solution and placed on the gauze covered top of the flea chamber, so that the fleas are able to suck the blood. The blood chamber is heated to 37° C. whereas the flea chamber is kept at room temperature.
After 2 days mortality in % is determined. 100% means all the fleas have been killed; 0% means none of the fleas have been killed.

[3] = tested on: green peach aphid (Myzus persicae); assay: Myzus persicae oral test; conditions: 120 h, application rate 4 ppm, after 5 days
Procedure, shortened: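 Five-day oral feeding assay measuring percent mortality of a mixed aphid population that draws compound-containing sugared IPL41 medium through sealing parafilm; the test preparation derives from 1 part compound per 100 parts acetone, diluted with water.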

[4] = tested on: Rhipicephalus microplus larvae (strain Parkhurst, resistant against synthetic pyrethroids); assay: Rhipicephalus (Boophilus) microplus in-vitro contact test, larval cattle tick; conditions: after 48 hours, read-out: activity (efficacy: larvae dead or moribund); for pest or weed control at 100 g/ha: application rate 1 pg/cm^2 (=100 g/ha); for pest or weed control at 500 g/ha: application rate 5 pg/cm^2 (=500 g/ha)
Procedure, shortened: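 Larvae (20-50 per tube) exposed to dry compound film on glass tube walls, 5 μg/cm^2 at 900 ppm, applied from acetone. After 48 h at 27° C./85% RH, tubes tapped and negative geotaxis scored; efficacy as percent dead or moribund larvae.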

[5] = tested on: adult engorged female ticks (Rhipicephalus microplus); assay: Rhipicephalus (Boophilus) microplus injection test; conditions: 168 h, egg deposition after 7 days, read-out: activity (efficacy: infertile eggs); for pest or weed control at 4 pg: application rate 4 pg/animal; for pest or weed control at 0.02 mg: application rate 20 μg/animal
Procedure, shortened: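 Compound in DMSO (10 mg per 0.5 mL, then diluted with DMSO to test concentration); 1 μL injected into the abdomen of each of five engorged females, then held in a climate chamber. Fertile egg deposition checked at 7 days; efficacy 100% = all eggs infertile, 0% = all fertile.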

[6] = tested on: adult brown dog ticks (Rhipicephalus sanguineus); assay: Rhipicephalus sanguineus in-vitro contact test, adult brown dog ticks; conditions: after 48 hours, read-out: activity (efficacy: ticks dead or moribund)
Procedure, shortened: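 Glass tubes are coated with compound dissolved in acetone, a 900 ppm solution yielding 5 μg/cm^2 on the inner surface. Adult ticks (5-10 per tube) are kept on the dry film at room temperature for 48 h, then those unable to escape 45-50° C heat are counted as dead or moribund.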

[7] = tested on: larvae of the banded cucumber beetle (Diabrotica balteata); assay: Diabrotica balteata spray test; conditions: 168 h, after 7 days, read-out: activity (efficacy: seedlings grown); for pest or weed control at 100 g/ha: application rate 100 g/ha (=32 pg/well); for pest or weed control at 500 g/ha: application rate 500 g/ha (=160 pg/well)
Procedure, shortened: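 Read-out is % efficacy at day 7, 0% meaning no seedling growth and 100% growth equal to uninfested untreated controls. Test solutions (acetone/DMF concentrate diluted with water carrying 1000 ppm emulsifier) were sprayed onto 1-day-germinated wheat seeds, 5 per well, before infestation with 10-20 larvae.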

[8] = tested on: larvae of the southern green stink bug (Nezara viridula); assay: Nezara viridula spray test; conditions: 96 h, after 4 days; for mortality at 500 g/ha: application rate 500 g/ha; for mortality at 100 g/ha: application rate 100 g/ha
Procedure: Nezara viridula—Spray Test
Solvent: 78.0 parts by weight of acetone • • 1.5 parts by weight of dimethylformamide
(§1) Emulsifier: alkylarylpolyglycol ether
To produce a suitable preparation of active compound, 1 part by weight of active compound is mixed with the stated amount of solvent, and the concentrate is diluted with water, containing an emulsifier concentration of 1000 ppm, to the desired concentration. Further test concentrations are prepared by dilution with emulsifier containing water.
Barley plants (Hordeum vulgare) infested with larvae of the southern green stink bug (Nezara viridula) are sprayed with a test solution containing the desired concentration of the active ingredient.
After 4 days mortality in % is determined. 100% means all the stink bugs have been killed; 0% means none of the stink bugs have been killed.

[9] = tested on: green peach aphid (Myzus persicae); assay: Myzus persicae spray test; conditions: 120 h, after 5 days; for mortality at 100 g/ha: application rate 100 g/ha
Procedure: Myzus persicae—Spray Test
Solvent: 78.0 parts by weight acetone • 1.5 parts by weight dimethylformamide
as §1
To produce a suitable preparation of active compound, 1 part by weight of active compound is mixed with the stated amount of solvents and is diluted with water, containing an emulsifier concentration of 1000 ppm, to the desired concentration. Further test concentrations are prepared by dilution with emulsifier containing water.
Chinese cabbage (Brassica pekinensis) leaf disks infected with all instars of the green peach aphid (Myzus persicae), are sprayed with a preparation of the active ingredient of the desired concentration.
After 5 days mortality in % is determined. 100% means all aphids have been killed and 0% means none of the aphids have been killed.

[10] = tested on: Aedes aegypti strain MONHEIM; assay: Aedes aegypti test (AEDSAE surface treatment & contact assay); conditions: 24 hours after contact, read-out: efficacy (mortality)
Procedure: Aedes aegypti Test (AEDSAE Surface Treatment & Contact Assay)
Solvent: Aceton+2000 ppm rapeseed oil methyl ester (RME)
In order to produce a sufficient, active ingredient containing solution it is necessary to solve the test compound in the solvent-mix (acetone at 2 mg/ml/RME 2000 ppm). This solution is pipetted onto a glazed tile and after evaporation of the acetone, adult mosquitoes of the species Aedes aegypti strain MONHEIM are placed onto the dried surface. The exposure time is 30 minutes. Mortality in percent (%) is determined 24 hours after contact of the insects to the treated surface. 100% mortality means that all tested insects are dead, whereas 0% means that no insect died.

Structure (SMILES)	mortality at 100 g/ha [1]	mortality at 100 ppm [2]	mortality at 4 ppm [3]	pest or weed control at 100 g/ha [4]	pest or weed control at 500 g/ha [4]	pest or weed control at 4 pg [5]	pest or weed control at 0.02 mg [5]	pest or weed control at 100 g/ha ([6]; application rate 1 pg/cm^2 (=100 g/ha))	pest or weed control at 5 µg/cm2, 500 g/ha ([6]; application rate 5 μg/cm^2 (=500 g/ha))	pest or weed control at 100 g/ha [7]	mortality at 500 g/ha [1]	mortality at 500 g/ha [8]	pest or weed control at 500 g/ha [7]	mortality at 100 g/ha [8]	mortality at 100 g/ha [9]	mortality at 500 g/ha ([9]; application rate 500 g/ha)	mortality at 4 mg/m2 ([10]; surface concentration 4 mg/m^2, exposure 30 minutes)	mortality at 20 mg/m2 ([10]; surface concentration 20 mg/m^2, exposure 30 minutes)
CC(C)c1nc([C@H](C)NC(=O)c2cc(Cl)cc(S(C)(=O)=O)c2)n(-c2ccc(C#N)cn2)n1 [I-16]	100%	100%	100%	100%	100%	100%	100%	100%	100%	80%								
CC(NC(=O)c1cc(Cl)cc(S(C)(=O)=O)c1)c1nc(Br)nn1-c1ccc(Cl)cn1 (stereo not drawn) [I-28]	100%	100%	90%	100%	100%	100%	100%			100%	100%	100%	100%					
C[C@H](NC(=O)c1cc(F)cc(S(C)(=O)=O)c1)c1nc(C2CC2)nn1-c1ccc(C#N)cn1 [I-63]	100%		100%							100%				100%	90%			
COc1nc([C@H](C)NC(=O)c2cc(C(F)F)cc(S(=O)(=O)C3CC3)c2)n(-c2ccc(Cl)cn2)n1 [I-94]	100%									100%		100%			90%			
C[C@H](NC(=O)c1cc(C(F)F)cc(S(C)(=O)=O)c1)c1nc(C2CC2)nn1-c1ncc(Cl)cn1 [I-67]	100%		100%							100%		100%		100%	90%	100%		
CC(NC(=O)c1cc(Br)cc(C2(C(F)(F)F)CC2)c1)c1nc(Cl)nn1-c1ncccn1 (stereo not drawn) [I-47]	100%	80%	100%	90%	90%	100%	100%			100%							80 to 100%	80 to 100%
COc1nc([C@H](C)NC(=O)c2cc(OC(F)(F)F)cc(S(=O)(=O)C3CC3)c2)n(-c2ncc(Cl)cn2)n1 [I-91]	100%									100%		100%			90%			
CC(NC(=O)c1cc(Cl)cc(S(C)(=O)=O)c1)c1nc(I)nn1-c1ncccn1 (stereo not drawn) [I-41]			100%							100%				100%	100%			
COc1nc([C@H](C)NC(=O)c2cc(Cl)cc(S(=O)(=O)C3CC3)c2)n(-c2ncc(Cl)cn2)n1 [I-79]	100%		100%									100%		90%	90%			
C[C@H](NC(=O)c1cc(Cl)cc(S(=O)(=O)CC(F)(F)F)c1)c1nc(C2CC2)nn1-c1ncc(Cl)cn1 [I-26]		100%	90%	90%	90%	100%	100%			100%								
CCOc1nc([C@H](C)NC(=O)c2cc(Cl)cc(S(C)(=O)=O)c2)n(-c2ccc(C#N)cn2)n1 [I-9]	100%	100%	100%	100%	100%	100%	100%				100%		100%					
CC(NC(=O)c1cc(Cl)cc(S(C)(=O)=O)c1)c1nc(C(F)F)nn1-c1ccc(C#N)cn1 (stereo not drawn) [I-6]	83%	100%	100%	100%	100%	100%	100%				100%							
CC(NC(=O)c1cc(Br)cc(C2(C(F)(F)F)CC2)c1)c1nc(Br)nn1-c1ncccn1 (stereo not drawn) [I-48]	100%	100%	100%	90%	90%	100%												
